Test results as given in patent US9765075B2, “Substituted bridged urea analogs as sirtuin modulators” (GLAXOSMITHKLINE LLC, priority 2013, dated 2017).
Where two headings read alike, the source gives them in different places.

Target: T1, SIRT1 (Homo sapiens, UniProt Q96EB6)
T1 sequence (Q96EB6 1-747): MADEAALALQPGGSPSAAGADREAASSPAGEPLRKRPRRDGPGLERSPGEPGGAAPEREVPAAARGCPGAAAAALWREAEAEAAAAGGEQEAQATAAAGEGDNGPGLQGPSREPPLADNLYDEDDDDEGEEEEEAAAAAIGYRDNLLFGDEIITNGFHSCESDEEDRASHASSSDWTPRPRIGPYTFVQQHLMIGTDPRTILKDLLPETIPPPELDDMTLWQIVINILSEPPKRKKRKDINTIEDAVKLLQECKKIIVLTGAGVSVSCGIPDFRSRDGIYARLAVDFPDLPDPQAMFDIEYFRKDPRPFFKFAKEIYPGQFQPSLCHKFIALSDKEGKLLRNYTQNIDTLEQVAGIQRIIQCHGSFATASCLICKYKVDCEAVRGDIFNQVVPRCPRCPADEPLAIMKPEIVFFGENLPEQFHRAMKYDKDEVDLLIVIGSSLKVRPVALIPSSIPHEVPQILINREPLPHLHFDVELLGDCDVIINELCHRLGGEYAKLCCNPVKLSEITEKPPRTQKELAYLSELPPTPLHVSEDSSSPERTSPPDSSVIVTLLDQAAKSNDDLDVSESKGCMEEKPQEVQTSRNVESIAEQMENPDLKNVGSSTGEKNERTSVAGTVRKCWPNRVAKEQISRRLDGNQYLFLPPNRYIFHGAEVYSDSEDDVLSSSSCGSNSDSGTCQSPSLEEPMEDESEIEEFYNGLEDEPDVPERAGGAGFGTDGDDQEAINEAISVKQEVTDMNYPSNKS
Assay: Trp mass spectrometry assay (SIRT1 activation)
Format: biochemical
Conditions: for Emax: percent maximum fold activation of SIRT1, read-out: Tryp % Fold Act
In short: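 N-His-tagged SIRT1 (10 nM), expressed in E. coli, was incubated with 0.5 μM Ac-RHKK(Ac)W-NH2 peptide and 120 μM NAD+ for 25 min at 25 °C in HEPES pH 7.5 with […]. The reaction was stopped with formic acid and O-acetyl-ADP-ribose or deacetylated peptide was quantified by mass spectrometry. Results are given as EC1.5 and percent maximal activation relative to DMSO control.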

[1] = concentration of test compound that results in 150% activation of SIRT1, Trp peptide substrate
[2] = Trp mass spectrometry assay, EC1.5 = concentration giving 150% activation of SIRT1
[3] = Trp mass spectrometry assay, EC1.5 = concentration of test compound that results in 150% activation of SIRT1

Row | Compound | Tryp AVG EC1.5 (μM) [1] | Emax (Trp peptide substrate) [%] | Tryp AVG EC1.5 (μM) [2] | Emax (Trp mass spectrometry assay) [%] | Tryp AVG EC1.5 (μM) [3]
1 | CN(C)c1cccc(-c2ccc3c(n2)N(C(=O)Nc2cnccn2)[C@H]2CCCN3C2)c1 [Example 403] | A (EC1.5<1 μM) | ≥ 150 |  |  | 
2 | [N-]=[N+]=NCC(=O)NCc1ccc(NC(=O)N2c3nc(-c4cccc(C(F)(F)F)c4)ccc3N3CC[C@H]2C3)cc1 [Example 799] |  |  | A (EC1.5<1 μM) | ≥ 150 | 
3 | O=C(Nc1cnccn1)N1c2nc(-c3cncc(F)c3)ccc2N2CCC1CC2 [Example 555] | B (EC1.5 1-25 μM) | ≥ 150 |  |  | 
4 | O=C(Nc1ccccn1)N1c2nc(-c3cc(F)cc(C(F)(F)F)c3)ccc2N2CC[C@H]1C2 [Example 333] | A (EC1.5<1 μM) | ≥ 150 |  |  | 
5 | [N-]=[N+]=NCc1cc(N=[N+]=[N-])cc(-c2ccc3c(n2)N(C(=O)Nc2ccc(F)cn2)[C@H]2CCN3C2)c1 [Example 806] |  |  | A (EC1.5<1 μM) | ≥ 150 | 
6 | O=C(Nc1ccccn1)N1c2nc(-c3cncc(C(F)(F)F)c3)ccc2N2CCC[C@H]1C2 [Example 369] | A (EC1.5<1 μM) | ≥ 150 |  |  | 
7 | O=C(Nc1ccc(F)cn1)N1c2nc(N3CCCC(C(F)(F)F)C3)ccc2N2CCC[C@H]1C2 (some centres unmarked) [Example 359] | A (EC1.5<1 μM) | ≥ 150 |  |  | 
8 | O=C(Nc1cccc(-c2cnco2)c1)N1c2nc(-c3cccc(Cl)c3)ccc2N2CCC1CC2 [Example 497] | A (EC1.5<1 μM) | ≥ 150 |  |  | 
9 | O=C(Nc1ccccn1)N1c2nc(Cl)ccc2N2CC[C@H]1C2 [Example 258] | C (EC1.5>25 μM) | ≥ 150 |  |  | 
10 | CC(C)(C)OC(=O)NCc1ccc(NC(=O)N2c3nc(-c4cccc(C(F)(F)F)c4)ccc3N3CCC[C@H]2C3)cc1 [Example 445] | A (EC1.5<1 μM) | ≥ 150 |  |  | 
11 | Cc1nc(NC(=O)N2c3nc(-c4cccc(C(F)(F)F)c4)ccc3N3CCC2CC3)sc1C [Example 173] |  |  |  | ≥ 150 | A (EC1.5<1 μM)
12 | O=C(Nc1ccncn1)N1c2nc(N3CCCNCC3)ccc2N2CCC[C@H]1C2 [Example 420] | C (EC1.5>25 μM) | < 150 |  |  | 
13 | COc1cc(NC(=O)N2c3nc(-c4cccc(N5CC[C@@H](F)C5)c4)ccc3N3CC[C@H]2C3)ncn1 [Example 281] | A (EC1.5<1 μM) | ≥ 150 |  |  | 
14 | O=C(Nc1cncnc1)N1c2nc(-c3cccc(C(F)(F)F)c3)ccc2N2CC[C@H]1C2 [Example 23] |  |  |  | ≥ 150 | 
15 | O=C(Nc1cccnn1)N1c2nc(-c3cccc(Cl)c3)ccc2N2CC[C@H]1C2 [Example 822] |  |  | A (EC1.5<1 μM) | ≥ 150 | 
16 | O=C(Nc1cc(Br)cc(-c2cnco2)c1)N1c2nc(-c3cccc(C(F)(F)F)c3)ccc2N2CC[C@H]1C2 [Example 562] | A (EC1.5<1 μM) | ≥ 150 |  |  | 
17 | O=C(Nc1cncc(F)c1)N1c2nc(-c3cncc(C(F)(F)F)c3)ccc2N2CCC[C@H]1C2 [Example 411] | A (EC1.5<1 μM) | ≥ 150 |  |  | 
18 | O=C(Nc1cnccn1)N1c2nc(-c3ccnc(N4CCC(C(F)(F)F)C4)c3)ccc2N2CC[C@H]1C2 (some centres unmarked) [Example 389] | A (EC1.5<1 μM) | ≥ 150 |  |  | 
19 | O=C(Nc1ccncc1)N1c2nc(-c3cccc(C(F)(F)F)c3)ccc2N2CC[C@H]1C2 [Example 817] |  |  | A (EC1.5<1 μM) | ≥ 150 | 
20 | O=C(Nc1cc(-c2cnco2)ccn1)N1c2nc(-c3cncc(F)c3)ccc2N2CC[C@H]1C2 [Example 727] |  |  | A (EC1.5<1 μM) | ≥ 150 | 
21 | COc1cc(NC(=O)N2c3nc(-c4cccc(N5CCCC5)c4)ccc3N3CC[C@H]2C3)ncn1 [Example 132] |  |  |  | ≥ 150 | B (EC1.5 1-25 μM)
22 | O=C(Nc1cnccn1)N1c2nc(-c3cccc(C(F)(F)F)c3)ccc2N2CCC1CC2 [Example 472] | A (EC1.5<1 μM) | ≥ 150 |  |  | 
23 | O=C(Nc1ccccn1)N1c2nc(-c3cccc(C(F)(F)F)c3)ccc2N2CCC1CC2 [Example 158] |  |  |  | ≥ 150 | B (EC1.5 1-25 μM)
24 | O=C(Nc1ccc(F)cn1)N1c2nc(-c3cccc(Cl)c3)ccc2N2CCC[C@H]1C2 [Example 141] |  |  |  | ≥ 150 | A (EC1.5<1 μM)
25 | CC(C)N1CCCN(c2ccc3c(n2)N(C(=O)Nc2ccncn2)[C@H]2CCCN3C2)CC1 [Example 447] | C (EC1.5>25 μM) | < 150 |  |  | 

Row | Compound | Tryp AVG EC1.5 (μM) [1] | Emax (Trp peptide substrate) [%] | Tryp AVG EC1.5 (μM) [2] | Emax (Trp mass spectrometry assay) [%] | Tryp AVG EC1.5 (μM) [3]
26 | CC1CN2CC1N(C(=O)Nc1ccncc1)c1nc(-c3cccc(C(F)(F)F)c3)ccc12 (centres unmarked) [Example 114] |  |  |  | ≥ 150 | B (EC1.5 1-25 μM)
27 | Cc1cnccc1NC(=O)N1c2nc(-c3cccc(C(F)(F)F)c3)ccc2N2CC[C@H]1C2 [Example 21] |  |  |  | ≥ 150 | 
28 | COc1ccc(C)nc1NC(=O)N1c2nc(-c3cccc(C(F)(F)F)c3)ccc2N2CC[C@H]1C2 [Example 77] |  |  |  | ≥ 150 | B (EC1.5 1-25 μM)
29 | Cc1noc(C)c1-c1ccc2c(n1)N(C(=O)Nc1cnccn1)[C@H]1CCN2C1 [Example 413] | C (EC1.5>25 μM) | < 150 |  |  | 
30 | O=C(Nc1cccnn1)N1c2nc(-c3cccnc3)ccc2N2CCC[C@H]1C2 [Example 457] | B (EC1.5 1-25 μM) |  |  |  | 
31 | CCc1nnc(NC(=O)N2c3nc(-c4cccc(C(F)(F)F)c4)ccc3N3CC[C@H]2C3)s1 [Example 647] |  |  | A (EC1.5<1 μM) | ≥ 150 | 
32 | O=C(Nc1cncc(F)c1)N1c2nc(-c3cccc(Cl)c3)ccc2N2CC[C@H]1C2 [Example 119] |  |  |  | ≥ 150 | A (EC1.5<1 μM)
33 | O=C(NCCn1ccnc1)N1c2nc(-c3cccc(C(F)(F)F)c3)ccc2N2CC[C@H]1C2 [Example 661] |  |  | C (EC1.5>25 μM) | ≥ 150 | 
34 | O=C(NCCN1CCOCC1)N1c2nc(-c3cccc(C(F)(F)F)c3)ccc2N2CC[C@H]1C2 [Example 616] | B (EC1.5 1-25 μM) | ≥ 150 |  |  | 
35 | CCCC(=O)c1cccc(NC(=O)N2c3nc(-c4cccc(C(F)(F)F)c4)ccc3N3CC[C@H]2C3)c1 [Example 736] |  |  | A (EC1.5<1 μM) | ≥ 150 | 
36 | O=C(Nc1ccncc1)N1c2nc(-c3ccnc(N4CC[C@H](F)C4)c3)ccc2N2CC[C@H]1C2 [Example 422] | A (EC1.5<1 μM) | ≥ 150 |  |  | 
37 | COc1nccnc1NC(=O)N1c2nc(-c3ccnc(C)c3)ccc2N2CC[C@H]1C2 [Example 501] | B (EC1.5 1-25 μM) | ≥ 150 |  |  | 
38 | COc1nccc(NC(=O)N2c3nc(-c4cccc(C#N)c4)ccc3N3CC[C@H]2C3)n1 [Example 183] |  |  |  | ≥ 150 | B (EC1.5 1-25 μM)
39 | CC(C)(C)OC(=O)NCC#Cc1ccc(NC(=O)N2c3nc(-c4cccc(C(F)(F)F)c4)ccc3N3CCC[C@H]2C3)cc1-c1cnco1 [Example 753] |  |  | A (EC1.5<1 μM) | ≥ 150 | 
40 | Cc1cc(-c2ccc3c(n2)N(C(=O)Nc2cnccn2)[C@H]2CCN3C2)ccn1 [Example 222] | A (EC1.5<1 μM) | ≥ 150 |  |  | 
41 | O=C(Nc1ccccn1)N1c2nc(-c3cccc(F)c3)ccc2N2CC[C@H]1C2 [Example 57] |  |  |  | ≥ 150 | 
42 | O=C(Nc1cccnc1)N1c2nc(-c3cccc(Cl)c3)ccc2N2CC[C@H]1C2 [Example 107] |  |  |  | ≥ 150 | 
43 | Cc1nc(NC(=O)N2c3nc(-c4cccc(N5CCCC5)c4)ccc3N3CC[C@H]2C3)sc1C [Example 187] |  |  |  | ≥ 150 | B (EC1.5 1-25 μM)
44 | N#Cc1cncc(-c2ccc3c(n2)N(C(=O)Nc2cnccn2)[C@H]2CCN3C2)c1 [Example 459] | A (EC1.5<1 μM) | ≥ 150 |  |  | 
45 | N#Cc1cccc(-c2ccc3c(n2)N(C(=O)Nc2cnccn2)[C@H]2CCCN3C2)c1 [Example 351] | A (EC1.5<1 μM) | ≥ 150 |  |  | 
46 | O=C(Nc1cncc(F)c1)N1c2nc(Cl)ccc2N2CC[C@H]1C2 [Example 259] | B (EC1.5 1-25 μM) | ≥ 150 |  |  | 
47 | O=C(Nc1ccccn1)N1c2nc(-c3cccc(C(F)(F)F)c3)ccc2N2C[C@@H](O)[C@H]1C2 [Example 601] | A (EC1.5<1 μM) | ≥ 150 |  |  | 
48 | Cc1cc(C)nc(NC(=O)N2c3nc(N4CCCC(C(F)(F)F)C4)ccc3N3CC[C@H]2C3)c1 (some centres unmarked) [Example 213] |  |  |  | ≥ 150 | B (EC1.5 1-25 μM)
49 | CCc1cccc(CC)c1NC(=O)N1c2nc(-c3cccc(C(F)(F)F)c3)ccc2N2CC[C@H]1C2 [Example 71] |  |  |  | < 150 | 
